According to US6602512B1, “Composition for the prevention of muscle fatique and skeletal muscle adaptation of strenuous exercise” (Sigma-Tau HealthScience S.p.A., priority 1999, dated 2003):

Key:
mice = assay: Muscle fatigue test (swimming endurance); assay type: in vivo; conditions: for swimming endurance time (in words): daily oral 200 mg/kg over 6 days, versus controls; for Swimming time: daily oral doses of 200 mg/kg of each compound over 6 days preceding the test
Method: The method described by Zheng (Zheng R. L., Acta Pharmacol. Sinica, 14, 47, 1993) was used for this test in order to observe whether the administration of L-carnitine or creatinol-phosphate or of the two products in combination might increase […] in treated animals as compared to controls.
In this test, different groups of mice received daily oral doses of 200 mg/kg of L-carnitine or 200 mg/kg of creatinol-phosphate or of the two compounds in combination over the 6-day period preceding the test. The animals were immersed in a tank full of water and swimming endurance time was measured.

gastrocnemius muscle = assay: Forced muscular exercise test (treadmill), MDA content in gastrocnemius muscle; assay type: in vivo; conditions: rats, daily oral 200 mg/kg of each compound for 6 days; for MDA content in muscle, After 5 min: gastrocnemius muscle 5 min after end of treadmill test; for MDA content in muscle, After 30 min: gastrocnemius muscle 30 min after end of treadmill test
Text: As is known, forced muscular exercise can produce structural and inflammatory-type lesions at muscle fibre level, due to the increased oxygen consumption and to production of reactive oxygen species (ROS). A marker of the level of ROS-induced lipid peroxidation of the muscle may be obtained from its malondialdehyde (MDA) concentration. For this test, the method described by Husain was used (Husain K., Pathophysiology, 4, 69, 1997) as modified by Li (Li J.X., Acta Pharmacologica Sinica, 20, 126, 1999) which consists essentially in examining rats on a treadmill at controlled belt speed and preset inclination. In this way the rats were made to run at a belt speed of 28 m/min and an inclination of approximately 5°. Exhaustion of the control animals subjected to the exercise occurred after approximately 90 minutes.
The test was performed on rats receiving daily oral treament over the 6-day period preceding the test with 200 mg/kg of L-carnitine or with 200 mg/kg of creatinol-phosphate or with the two compounds in combination.
Five minutes and 30 minutes, respectively, after the end of the test, the animals were sacrificed and samples of gastrocnemius muscle were taken for measurement of the malondialdehyde (MDA) content using the reaction with thiobarbituric acid according to the method described by Ohkawa (Ohkawa H. Angl. Biochem 95, 351, 1979).

## CN(CCOP(=O)(O)O)C(=N)N [Creatinol-phosphate, 1-(2-hydroxyethyl)-1-methylguanidine-O-phosphate]
mice
  swimming endurance time (in words): increased swimming endurance time
  Swimming time: 124 ± 11 min
Gastrocnemius muscle
  MDA content in muscle, After 5 min: 206 ± 16 nmol/g
  MDA content in muscle, After 30 min: 209 ± 12 nmol/g

## C[N+](C)(C)C[C@H](O)CC(=O)[O-] [L-carnitine]
mice
  swimming endurance time (in words): increased swimming endurance time
  Swimming time: 118 ± 14 min
Gastrocnemius muscle
  MDA content in muscle, After 5 min: 218 ± 11 nmol/g
  MDA content in muscle, After 30 min: 216 ± 14 nmol/g
